Here are results for two compounds from PMC9783573, “Introduction of a SiFA Moiety into the D-Glutamate Chain of DOTA-PP-F11N Results in Radiohybrid-Based CCK-2R-Targeted Compounds with Improved Pharmacokinetics In Vivo” (Pharmaceuticals, 2022).

Read-outs that look alike come from different tables or passages of the source. Bounds are passed on as bounds.

A short description of series [1]: in vivo. The note with it: mouse, 24 h p.i. Also noted: species or system mice. As for the experimental part: For biodistribution studies, the ^177Lu-labelled compound (approx. 2–3 MBq, 100 pmol) was injected into a lateral tail vein (n = 4) of anesthetised (2% isoflurane) AR42J tumour-bearing CB-17-SCID mice. At 24 h post-injection (p.i.), the mice were euthanised. Thereafter, the pertinent organs were removed, weighed and measured using a γ-counter.
For all competition studies, 2.90 mg/kg (40 nmol) of [^natLu]Lu-DOTA-MGS5 (10^−3 M in phosphate-buffered saline) were co-administered.
Figure S4. (a) Biodistribution of [177Lu]Lu-DOTA-rhCCK-16 (100 pmol) co-injected with [natLu]Lu-DOTA-MGS5
(40 nmol) in selected organs (%ID/g) at 24 h p.i. in AR42J tumour-bearing CB17-SCID mice. Data is expressed as
mean ± SD (n = 2). (b) Representative µSPECT/CT images of [177Lu]Lu-DOTA-rhCCK-16 co-injected with [natLu]Lu-
DOTA-MGS5 (40 nmol) at 24 h p.i. in AR42J tumour-bearing CB17- SCID mice.
(1 picture or pasted object on this page, not shown here)

The conditions of series [2]: first patient studies; cited from earlier work.

Turning to `CCCC[C@H](NC(=O)[C@H](Cc1c[nH]c2ccccc12)NC(=O)CNC(=O)[C@H](Cc1ccc(O)cc1)NC(=O)[C@H](C)NC(=O)CC[C@@H](NC(=O)CC[C@@H](NC(=O)CC[C@@H](NC(=O)CC[C@@H](NC(=O)CC[C@@H](NC(=O)CC[C@@H](NC(=O)[C@@H](CNC(=O)c1ccc([Si](F)(C(C)(C)C)C(C)(C)C)cc1)NC(=O)CC[C@H](C(=O)O)N1CCN(CC(=O)O)CCN(CC(=O)O)CCN(CC(=O)O)CC1)C(=O)O)C(=O)O)C(=O)O)C(=O)O)C(=O)O)C(=O)O)C(=O)N[C@@H](CC(=O)O)C(=O)N[C@@H](Cc1ccccc1)C(N)=O` [[nat/177Lu]Lu-(R)-DOTAGA-rhCCK-16, metal not drawn], the tissue uptake at 24 h in series [1] (CB17-SCID, iv, total radioactivity, competition, read-out: Activity levels in the stomach, co-injection of excess [natLu]Lu-DOTA-MGS5) was less than 0.3 %ID/g; in series [1] (CB17-SCID, iv, total radioactivity, competition, read-out: activity levels in the tumour, co-injection of excess [natLu]Lu-DOTA-MGS5) it was less than 1 %ID/g; in series [1] (100 pmol + 40 nmol [natLu]Lu-DOTA-MGS5, n = 2, read-out: Biodistribution competition studies, Adrenal), 0.4 ± 0.11 %ID/g; in series [1] (100 pmol + 40 nmol [natLu]Lu-DOTA-MGS5, n = 2, read-out: Biodistribution competition studies, Blood), 0.05 %ID/g; in series [1] (100 pmol + 40 nmol [natLu]Lu-DOTA-MGS5, n = 2, read-out: Biodistribution competition studies, Bone) it was 0.24 ± 0.04 %ID/g; in series [1] (100 pmol + 40 nmol [natLu]Lu-DOTA-MGS5, n = 2, read-out: Biodistribution competition studies, Heart), 0.13 ± 0.01 %ID/g. Besides, the tissue uptake at 24 h in series [1] (100 pmol + 40 nmol [natLu]Lu-DOTA-MGS5, n = 2, read-out: Biodistribution competition studies, Intestine) worked out at 0.16 ± 0.03 %ID/g; in series [1] (100 pmol + 40 nmol [natLu]Lu-DOTA-MGS5, n = 2, read-out: Biodistribution competition studies, Kidney), 105 ± 21 %ID/g; in series [1] (100 pmol + 40 nmol [natLu]Lu-DOTA-MGS5, n = 2, read-out: Biodistribution competition studies, Liver), 2.31 ± 0.66 %ID/g; in series [1] (100 pmol + 40 nmol [natLu]Lu-DOTA-MGS5, n = 2, read-out: Biodistribution competition studies, Lung) it was 2.59 ± 1.27 %ID/g; in series [1] (100 pmol + 40 nmol [natLu]Lu-DOTA-MGS5, n = 2, read-out: Biodistribution competition studies, Muscle) it was 0.06 ± 0.04 %ID/g; in series [1] (100 pmol + 40 nmol [natLu]Lu-DOTA-MGS5, n = 2, read-out: Biodistribution competition studies, Pancreas) it was 0.2 ± 0.01 %ID/g. Also, the tissue uptake at 24 h in series [1] (100 pmol + 40 nmol [natLu]Lu-DOTA-MGS5, n = 2, read-out: Biodistribution competition studies, Spleen) was found to be 1.73 ± 0.01 %ID/g; in series [1] (100 pmol + 40 nmol [natLu]Lu-DOTA-MGS5, n = 2, read-out: Biodistribution competition studies, Stomach), 0.15 ± 0.04 %ID/g; in series [1] (100 pmol + 40 nmol [natLu]Lu-DOTA-MGS5, n = 2, read-out: Biodistribution competition studies, Tumour), 0.91 ± 0.04 %ID/g.
On to `CCCC[C@H](NC(=O)[C@H](Cc1c[nH]c2ccccc12)NC(=O)CNC(=O)[C@H](Cc1ccc(O)cc1)NC(=O)[C@H](C)NC(=O)[C@@H](CCC(=O)O)NC(=O)[C@@H](CCC(=O)O)NC(=O)[C@@H](CCC(=O)O)NC(=O)[C@@H](CCC(=O)O)NC(=O)[C@@H](CCC(=O)O)NC(=O)[C@@H](CCC(=O)O)NC(=O)CN1CCN(CC(=O)O)CCN(CC(=O)O)CCN(CC(=O)O)CC1)C(=O)N[C@@H](CC(=O)O)C(=O)N[C@@H](Cc1ccccc1)C(N)=O` [[nat/177Lu]Lu-DOTA-PP-F11N, metal not drawn, reference compound], for which the “median (interquartile range) absorbed tumour dose” value in series [2] is on record as 0.88 Gy/GBq.
